Test results reported in ChEMBL document CHEMBL4507319 (2021).

What was measured:
[1] = test system: Tyrosine-protein kinase ABL1 (Homo sapiens), P00519 [H396P]; conditions: Compound concentration 1000.0 nM
[2] = biological target: Tyrosine-protein kinase ABL1 (Homo sapiens) (UniProt P00519); conditions: Compound concentration 1000.0 nM
[3] = biological target: Tyrosine-protein kinase ABL2 (Homo sapiens) (UniProt P42684); conditions: Compound concentration 1000.0 nM
[4] = biological target: Tyrosine-protein kinase BTK (Homo sapiens) (UniProt Q06187); conditions: Compound concentration 1000.0 nM
[5] = biological target: Mitotic checkpoint serine/threonine-protein kinase BUB1 (Homo sapiens) (UniProt O43683); conditions: Compound concentration 1000.0 nM
[6] = biological target: Peripheral plasma membrane protein CASK (Homo sapiens) (UniProt O14936); conditions: Compound concentration 1000.0 nM
[7] = biological target: Cyclin-dependent kinase 4 (Homo sapiens) (UniProt P11802); conditions: Compound concentration 1000.0 nM
[8] = biological target: Serine/threonine-protein kinase Chk2 (Homo sapiens) (UniProt O96017); conditions: Compound concentration 1000.0 nM
[9] = biological target: Casein kinase I isoform alpha (Homo sapiens) (UniProt P48729); conditions: Compound concentration 1000.0 nM
[10] = biological target: T1, Serine/threonine-protein kinase 17B (Homo sapiens) (UniProt O94768); conditions: Compound concentration 1000.0 nM
T1 sequence (whole entry): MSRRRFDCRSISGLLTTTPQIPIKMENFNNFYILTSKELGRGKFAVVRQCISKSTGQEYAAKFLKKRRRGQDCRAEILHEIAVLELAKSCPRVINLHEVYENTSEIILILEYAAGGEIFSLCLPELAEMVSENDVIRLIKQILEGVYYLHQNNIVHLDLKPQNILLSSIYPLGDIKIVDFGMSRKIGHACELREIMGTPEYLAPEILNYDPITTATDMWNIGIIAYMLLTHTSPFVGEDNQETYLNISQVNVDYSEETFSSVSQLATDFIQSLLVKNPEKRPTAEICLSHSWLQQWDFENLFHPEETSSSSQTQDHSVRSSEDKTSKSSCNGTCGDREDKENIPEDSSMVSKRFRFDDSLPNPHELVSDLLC

[11] = test system: Epidermal growth factor receptor (Homo sapiens), P00533 [UNDEFINED MUTATION]; conditions: Compound concentration 1000.0 nM
[12] = biological target: Ephrin type-A receptor 7 (Homo sapiens) (UniProt Q15375); conditions: Compound concentration 1000.0 nM
[13] = biological target: Mitogen-activated protein kinase 3 (Homo sapiens) (UniProt P27361); conditions: Compound concentration 1000.0 nM
[14] = biological target: T2, Inhibitor of nuclear factor kappa-B kinase subunit beta (Homo sapiens) (UniProt O14920); conditions: Compound concentration 1000.0 nM
T2 sequence (whole entry): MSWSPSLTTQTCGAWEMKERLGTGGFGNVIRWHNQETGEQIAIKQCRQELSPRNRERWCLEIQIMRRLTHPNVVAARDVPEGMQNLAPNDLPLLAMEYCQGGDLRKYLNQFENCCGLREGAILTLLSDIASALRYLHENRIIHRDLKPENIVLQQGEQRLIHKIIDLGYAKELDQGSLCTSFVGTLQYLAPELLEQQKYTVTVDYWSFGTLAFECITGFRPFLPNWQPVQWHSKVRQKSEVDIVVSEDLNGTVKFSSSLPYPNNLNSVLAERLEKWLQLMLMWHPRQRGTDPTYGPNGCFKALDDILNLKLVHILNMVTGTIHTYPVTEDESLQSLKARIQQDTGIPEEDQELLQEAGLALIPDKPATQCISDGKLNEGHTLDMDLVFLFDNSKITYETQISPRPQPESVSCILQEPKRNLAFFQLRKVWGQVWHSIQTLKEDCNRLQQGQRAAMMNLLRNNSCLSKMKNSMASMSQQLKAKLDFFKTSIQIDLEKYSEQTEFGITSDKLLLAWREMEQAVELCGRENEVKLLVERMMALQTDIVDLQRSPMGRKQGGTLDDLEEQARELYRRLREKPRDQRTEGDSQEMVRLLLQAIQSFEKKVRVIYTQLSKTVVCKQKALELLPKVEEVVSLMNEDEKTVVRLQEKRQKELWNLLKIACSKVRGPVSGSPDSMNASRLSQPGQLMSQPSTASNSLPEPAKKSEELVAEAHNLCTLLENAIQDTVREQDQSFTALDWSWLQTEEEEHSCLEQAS

[15] = biological target: Leukocyte tyrosine kinase receptor (Homo sapiens) (UniProt P29376); conditions: Compound concentration 1000.0 nM
[16] = biological target: Mitogen-activated protein kinase kinase kinase 9 (Homo sapiens) (UniProt P80192); conditions: Compound concentration 1000.0 nM
[17] = biological target: T3, Mitogen-activated protein kinase 13 (Homo sapiens) (UniProt O15264); conditions: Compound concentration 1000.0 nM
T3 sequence (whole entry): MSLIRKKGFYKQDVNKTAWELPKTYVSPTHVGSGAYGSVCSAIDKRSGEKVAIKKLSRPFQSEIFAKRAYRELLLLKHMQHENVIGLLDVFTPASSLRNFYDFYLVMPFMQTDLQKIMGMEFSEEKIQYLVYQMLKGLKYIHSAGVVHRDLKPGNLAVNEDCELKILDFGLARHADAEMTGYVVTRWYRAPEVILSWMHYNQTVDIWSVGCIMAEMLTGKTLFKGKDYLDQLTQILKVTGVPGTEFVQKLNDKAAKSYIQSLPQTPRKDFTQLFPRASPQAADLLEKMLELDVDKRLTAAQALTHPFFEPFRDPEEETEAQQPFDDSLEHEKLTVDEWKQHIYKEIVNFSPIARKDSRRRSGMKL

[18] = biological target: Serine/threonine-protein kinase PAK 6 (Homo sapiens) (UniProt Q9NQU5); conditions: Compound concentration 1000.0 nM
[19] = biological target: 5-hydroxytryptamine receptor 1A (Homo sapiens) (UniProt P08908); conditions: Compound concentration 10.0 uM
[20] = biological target: Sodium-dependent noradrenaline transporter (Homo sapiens) (UniProt P23975); conditions: Compound concentration 10.0 uM

Chain of Leukocyte tyrosine kinase receptor (Homo sapiens) (P29376 whole entry): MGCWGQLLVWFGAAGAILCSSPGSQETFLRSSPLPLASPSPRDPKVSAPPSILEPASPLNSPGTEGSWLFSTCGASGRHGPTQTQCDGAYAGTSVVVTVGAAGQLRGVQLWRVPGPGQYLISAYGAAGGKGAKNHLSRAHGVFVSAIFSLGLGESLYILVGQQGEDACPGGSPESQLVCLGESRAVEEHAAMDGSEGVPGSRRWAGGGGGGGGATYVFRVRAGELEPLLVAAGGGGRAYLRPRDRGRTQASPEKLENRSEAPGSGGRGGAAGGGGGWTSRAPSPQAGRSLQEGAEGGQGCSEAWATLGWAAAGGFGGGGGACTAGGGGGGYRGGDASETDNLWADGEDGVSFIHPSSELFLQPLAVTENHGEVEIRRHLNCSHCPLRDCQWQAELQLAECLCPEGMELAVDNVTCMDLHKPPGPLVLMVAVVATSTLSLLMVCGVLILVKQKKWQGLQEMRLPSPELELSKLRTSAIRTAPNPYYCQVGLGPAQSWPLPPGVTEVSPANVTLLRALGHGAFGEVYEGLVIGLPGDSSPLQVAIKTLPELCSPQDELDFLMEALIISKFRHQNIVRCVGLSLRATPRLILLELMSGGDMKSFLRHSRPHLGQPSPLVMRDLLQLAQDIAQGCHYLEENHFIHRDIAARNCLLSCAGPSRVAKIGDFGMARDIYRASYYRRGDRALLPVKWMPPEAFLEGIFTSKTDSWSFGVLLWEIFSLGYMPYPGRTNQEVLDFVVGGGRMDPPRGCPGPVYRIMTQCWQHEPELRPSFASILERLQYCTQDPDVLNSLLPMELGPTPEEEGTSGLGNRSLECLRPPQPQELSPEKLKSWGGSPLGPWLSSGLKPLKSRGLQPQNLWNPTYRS
Chain of Cyclin-dependent kinase 4 (Homo sapiens) (P11802 whole entry): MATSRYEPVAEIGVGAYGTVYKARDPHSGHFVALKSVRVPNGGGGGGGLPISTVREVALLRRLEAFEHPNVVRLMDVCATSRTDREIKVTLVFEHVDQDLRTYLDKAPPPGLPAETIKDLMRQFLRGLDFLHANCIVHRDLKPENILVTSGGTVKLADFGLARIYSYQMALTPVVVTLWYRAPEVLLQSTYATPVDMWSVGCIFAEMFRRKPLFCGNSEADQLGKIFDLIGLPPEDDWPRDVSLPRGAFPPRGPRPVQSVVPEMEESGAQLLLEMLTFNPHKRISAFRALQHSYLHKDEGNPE
Chain of Mitotic checkpoint serine/threonine-protein kinase BUB1 (Homo sapiens) (O43683 whole entry, looked up): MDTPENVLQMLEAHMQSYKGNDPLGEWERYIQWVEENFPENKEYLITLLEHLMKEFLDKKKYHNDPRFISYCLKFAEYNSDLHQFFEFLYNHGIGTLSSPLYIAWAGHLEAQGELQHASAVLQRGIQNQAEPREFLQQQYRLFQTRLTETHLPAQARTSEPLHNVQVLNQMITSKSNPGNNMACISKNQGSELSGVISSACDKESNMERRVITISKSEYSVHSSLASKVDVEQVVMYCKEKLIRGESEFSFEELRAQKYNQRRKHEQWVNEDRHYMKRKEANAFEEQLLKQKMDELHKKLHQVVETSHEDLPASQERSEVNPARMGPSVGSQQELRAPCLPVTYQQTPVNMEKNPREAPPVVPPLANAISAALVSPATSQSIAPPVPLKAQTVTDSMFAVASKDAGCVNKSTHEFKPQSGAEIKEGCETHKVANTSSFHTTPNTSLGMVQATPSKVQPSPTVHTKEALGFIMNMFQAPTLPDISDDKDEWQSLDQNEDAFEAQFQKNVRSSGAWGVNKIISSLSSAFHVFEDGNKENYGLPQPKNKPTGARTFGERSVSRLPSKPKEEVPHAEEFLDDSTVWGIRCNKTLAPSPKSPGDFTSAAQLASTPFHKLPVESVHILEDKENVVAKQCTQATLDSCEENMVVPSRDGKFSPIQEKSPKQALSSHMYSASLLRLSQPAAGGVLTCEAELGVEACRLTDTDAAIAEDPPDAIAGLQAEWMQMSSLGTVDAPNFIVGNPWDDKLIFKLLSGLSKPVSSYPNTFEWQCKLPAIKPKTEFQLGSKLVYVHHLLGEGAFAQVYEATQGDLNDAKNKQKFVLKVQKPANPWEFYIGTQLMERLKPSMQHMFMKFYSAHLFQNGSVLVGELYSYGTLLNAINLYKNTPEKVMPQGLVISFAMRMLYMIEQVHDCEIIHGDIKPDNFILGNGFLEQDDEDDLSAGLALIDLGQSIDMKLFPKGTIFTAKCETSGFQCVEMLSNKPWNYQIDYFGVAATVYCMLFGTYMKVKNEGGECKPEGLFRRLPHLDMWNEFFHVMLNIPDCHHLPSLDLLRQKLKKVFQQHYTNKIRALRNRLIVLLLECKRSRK
Chain of Peripheral plasma membrane protein CASK (Homo sapiens) (O14936 whole entry): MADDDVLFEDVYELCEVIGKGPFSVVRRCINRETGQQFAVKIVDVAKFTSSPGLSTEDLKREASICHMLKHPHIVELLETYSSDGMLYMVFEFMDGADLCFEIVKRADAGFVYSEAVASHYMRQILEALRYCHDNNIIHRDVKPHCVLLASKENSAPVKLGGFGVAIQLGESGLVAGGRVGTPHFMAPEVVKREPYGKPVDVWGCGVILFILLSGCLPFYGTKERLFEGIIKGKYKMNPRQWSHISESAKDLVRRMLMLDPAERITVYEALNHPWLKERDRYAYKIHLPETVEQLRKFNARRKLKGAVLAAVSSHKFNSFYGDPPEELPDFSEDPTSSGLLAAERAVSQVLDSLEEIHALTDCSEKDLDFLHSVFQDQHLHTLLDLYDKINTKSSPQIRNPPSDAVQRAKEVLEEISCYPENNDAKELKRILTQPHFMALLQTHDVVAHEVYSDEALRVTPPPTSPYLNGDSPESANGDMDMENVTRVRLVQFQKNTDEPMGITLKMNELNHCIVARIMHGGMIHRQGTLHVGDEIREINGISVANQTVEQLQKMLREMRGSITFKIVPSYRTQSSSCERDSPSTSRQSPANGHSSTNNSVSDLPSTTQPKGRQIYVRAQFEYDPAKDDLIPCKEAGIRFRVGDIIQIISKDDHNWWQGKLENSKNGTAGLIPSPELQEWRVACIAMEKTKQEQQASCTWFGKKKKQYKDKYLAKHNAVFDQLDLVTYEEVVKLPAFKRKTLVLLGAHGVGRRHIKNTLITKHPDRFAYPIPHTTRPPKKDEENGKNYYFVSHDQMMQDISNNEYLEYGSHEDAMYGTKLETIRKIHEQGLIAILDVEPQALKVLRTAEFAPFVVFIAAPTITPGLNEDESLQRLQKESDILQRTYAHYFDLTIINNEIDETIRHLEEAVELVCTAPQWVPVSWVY
Chain of Casein kinase I isoform alpha (Homo sapiens) (P48729 2-337 limits assumed): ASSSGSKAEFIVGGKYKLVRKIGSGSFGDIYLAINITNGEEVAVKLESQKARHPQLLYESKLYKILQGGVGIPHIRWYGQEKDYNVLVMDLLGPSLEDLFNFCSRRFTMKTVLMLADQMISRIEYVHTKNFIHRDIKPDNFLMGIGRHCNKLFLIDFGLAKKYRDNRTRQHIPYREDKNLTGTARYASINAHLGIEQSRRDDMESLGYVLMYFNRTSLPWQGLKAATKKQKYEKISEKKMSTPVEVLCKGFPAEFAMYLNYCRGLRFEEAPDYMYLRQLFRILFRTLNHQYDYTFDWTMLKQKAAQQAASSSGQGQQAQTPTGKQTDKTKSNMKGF
Chain of Mitogen-activated protein kinase kinase kinase 9 (Homo sapiens) (P80192 whole entry, looked up): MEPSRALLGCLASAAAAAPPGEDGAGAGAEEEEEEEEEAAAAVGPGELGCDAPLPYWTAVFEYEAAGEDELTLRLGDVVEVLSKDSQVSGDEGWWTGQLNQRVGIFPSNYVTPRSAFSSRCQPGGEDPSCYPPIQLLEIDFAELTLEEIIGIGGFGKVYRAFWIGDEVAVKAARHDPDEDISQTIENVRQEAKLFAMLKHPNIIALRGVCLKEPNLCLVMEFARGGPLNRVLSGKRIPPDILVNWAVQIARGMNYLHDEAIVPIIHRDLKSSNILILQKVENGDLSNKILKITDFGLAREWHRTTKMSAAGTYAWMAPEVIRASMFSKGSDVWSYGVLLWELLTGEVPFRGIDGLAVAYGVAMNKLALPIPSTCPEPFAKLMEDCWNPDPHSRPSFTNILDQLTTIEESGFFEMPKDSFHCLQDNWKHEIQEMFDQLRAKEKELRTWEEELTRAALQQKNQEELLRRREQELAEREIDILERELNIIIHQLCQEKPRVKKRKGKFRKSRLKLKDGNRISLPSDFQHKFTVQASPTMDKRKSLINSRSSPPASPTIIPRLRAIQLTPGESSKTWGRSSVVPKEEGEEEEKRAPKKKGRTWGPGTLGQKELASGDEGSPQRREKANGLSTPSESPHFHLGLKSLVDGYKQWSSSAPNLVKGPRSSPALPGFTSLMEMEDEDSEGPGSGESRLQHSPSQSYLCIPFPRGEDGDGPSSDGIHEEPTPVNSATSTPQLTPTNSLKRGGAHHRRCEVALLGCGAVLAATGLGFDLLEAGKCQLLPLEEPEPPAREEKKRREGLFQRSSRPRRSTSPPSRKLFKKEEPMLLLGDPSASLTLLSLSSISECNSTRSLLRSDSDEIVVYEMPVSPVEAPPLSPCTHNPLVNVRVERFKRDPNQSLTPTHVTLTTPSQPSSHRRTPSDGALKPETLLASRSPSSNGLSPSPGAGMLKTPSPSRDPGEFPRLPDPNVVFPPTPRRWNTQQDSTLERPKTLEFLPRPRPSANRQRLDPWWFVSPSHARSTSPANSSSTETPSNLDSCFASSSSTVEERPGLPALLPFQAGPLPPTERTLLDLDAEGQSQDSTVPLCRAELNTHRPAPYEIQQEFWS
Chain of Mitogen-activated protein kinase 3 (Homo sapiens) (P27361 whole entry): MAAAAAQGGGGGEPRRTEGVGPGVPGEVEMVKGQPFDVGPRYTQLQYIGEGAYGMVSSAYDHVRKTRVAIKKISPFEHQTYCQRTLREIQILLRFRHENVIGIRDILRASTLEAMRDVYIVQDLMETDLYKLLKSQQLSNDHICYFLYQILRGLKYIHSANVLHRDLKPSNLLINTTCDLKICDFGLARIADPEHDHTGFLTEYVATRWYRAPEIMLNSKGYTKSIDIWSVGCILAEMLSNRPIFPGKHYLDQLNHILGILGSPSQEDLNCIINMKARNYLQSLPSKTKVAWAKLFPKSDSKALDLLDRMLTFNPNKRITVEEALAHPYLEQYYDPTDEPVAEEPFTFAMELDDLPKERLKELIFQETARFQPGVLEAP

CCc1ccccc1C(=O)Nc1n[nH]c2c(C)c(F)c(C3C(C#N)=C(C)N(C)C(C)=C3C#N)cc12 [BAY-3827]
inactive: residual activity [1] 95% | residual activity [2] 78% | residual activity [3] 92% | residual activity [4] 99% | residual activity [5] 100% | residual activity [6] 81% | residual activity [7] 75% | residual activity [8] 70% | residual activity [9] 96% | residual activity [10] 100% | residual activity [11] 100% | residual activity [12] 81% | residual activity [13] 95% | residual activity [14] 94% | residual activity [15] 94% | residual activity [16] 92% | residual activity [17] 96% | residual activity [18] 93% | inhibition [19] 5.2% | inhibition [20] 2.8%

CC1=C(C#N)C(c2ccc3c(c2)c(NC(=O)c2ccccc2C)nn3C)C(C#N)=C(C)N1 [BAY-974]
inactive: residual activity [1] 100% | residual activity [2] 86% | residual activity [3] 99% | residual activity [4] 85% | residual activity [5] 74% | residual activity [6] 67% | residual activity [7] 79% | residual activity [8] 74% | residual activity [9] 70% | residual activity [10] 88% | residual activity [11] 93% | residual activity [12] 100% | residual activity [13] 94% | residual activity [14] 95% | residual activity [15] 70% | residual activity [16] 96% | residual activity [17] 79% | residual activity [18] 100% | inhibition [19] 8.55% | inhibition [20] 2.85%
